{
  "source": "patent US20030049260A1",
  "about": "“Method of improving cognitive function” (priority 2001, published 2003)",
  "origin": "cited, not measured here",
  "details": "for Change in Symbol Digit: max. increase: duration 12 weeks, An J Geriatr Psychiatry 1999;7:221-227",
  "data": [
    {"smiles": "CNCCC(Oc1ccc(C(F)(F)F)cc1)c1ccccc1", "note": "(stereo not drawn) [Fluoxetine]", "values": [
      {"measurement": "Change in Symbol Digit: max. increase", "value": 10, "unit": "% increase"}
    ]},
    {"smiles": "CNC1(c2ccccc2Cl)CCCCC1=O", "note": "(stereo not drawn) [Ketamine]", "values": [
      {"measurement": "Change in Symbol Digit: decline", "setting": "in vivo", "value": "5-10% decline"}
    ]},
    {"smiles": "CN[C@@H](C)Cc1ccccc1", "note": "[Methamphetamine]", "values": [
      {"measurement": "Change in Symbol Digit: reduction in drug group as compared to a control group", "setting": "in vivo", "value": "Significant 14%"}
    ]},
    {"smiles": "CC(C)NCC(O)COc1cccc2ccccc12", "note": "(stereo not drawn) [Propranolol]", "values": [
      {"measurement": "Change in Symbol Digit: decline as compared to placebo", "setting": "duration 8 hours, Br. J. Clin Pharmac 1984;17:31-36", "value": "10-15% decline"}
    ]},
    {"smiles": "CN[C@H]1CC[C@@H](c2ccc(Cl)c(Cl)c2)c2ccccc21", "note": "[Sertraline]", "values": [
      {"measurement": "Change in Symbol Digit: max. increase", "value": 21, "unit": "% increase"}
    ]},
    {"smiles": "Cc1nnc2n1-c1ccc(Cl)cc1C(c1ccccc1Cl)=NC2", "note": "[Triazolam]", "values": [
      {"measurement": "Change in Symbol Digit: reduction", "setting": "in vivo", "value": "10-20% reduction"}
    ]}
  ]
}
